Patent publication US20260035367A1 (Celgene Corporation, priority 2021, published 2026)
Where two headings read alike, the source gives them in different places.

Key:
[1] = target: T1, Recombinant human PKC-delta (His-tagged 345-676) (Homo sapiens, UniProt Q05655); assay: PKC-delta inhibition assay (HTRF KinEASE kit); type: biochemical; details: ratio, PKC-theta vs PKC-delta HTRF; for PKC-theta/PKC-delta selectivity (binned): binned A to G
T1 construct: PKC-delta (His-tagged 345-676); His

[2] = target: T2, Recombinant human PKC-theta (His-tagged 362-706) (Homo sapiens, UniProt Q04759); assay: PKC-theta inhibition assay (HTRF KinEASE kit); type: biochemical; details: ATP 6.5 μM, STK substrate 525 nM
T2 construct: Recombinant human PKC-theta (His-tagged 362-706); His
T2 sequence (Q04759 362-706): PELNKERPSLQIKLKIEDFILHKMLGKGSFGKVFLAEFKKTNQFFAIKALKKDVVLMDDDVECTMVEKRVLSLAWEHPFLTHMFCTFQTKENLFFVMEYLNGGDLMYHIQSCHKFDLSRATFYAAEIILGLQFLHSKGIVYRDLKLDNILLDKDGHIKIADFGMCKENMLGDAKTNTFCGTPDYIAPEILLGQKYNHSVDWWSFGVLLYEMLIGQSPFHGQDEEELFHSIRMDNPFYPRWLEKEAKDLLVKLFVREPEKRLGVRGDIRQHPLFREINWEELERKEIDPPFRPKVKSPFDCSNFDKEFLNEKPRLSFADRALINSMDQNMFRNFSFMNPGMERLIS
Method: PKC-theta and PKC-delta biochemical activities were measured using the PKC-theta HTRF KinEASEkit kit, according to manufacturer's instructions (Cisbio, catalogue number 61ST1PEJ). Briefly, the kinase buffer component of the kit was supplemented with 10 mM MgCl2, 1 mM DTT and 0.1% Tween 20. […] The streptavidin_XL665 and STK antibody-cryptate detection reagents were mixed according to the manufacturer's instructions. Test compounds were diluted in DMSO in a series of 10 semi-log step doses; 10 nL of each compound dose were dispensed in 384 well plates. […] The reaction was started by addition of the substrate and ATP and incubated at 25° C. for 30 minutes or 20 minutes for the PKC-theta and PKC-delta assays, respectively. The detection reagents were added, and the plate was incubated in the dark for 2 hours. […] The ratio of acceptor and donor emission signals was calculated for each well. Percent inhibition values were calculated from the HTRF ratios at different doses and fitted to a 4-parameter logistic curve to determine IC50 values (see Table 2).

[3] = system: IL-2 secretion by human effector memory T cells (TEM); assay: Effector memory T cells IL-2 release assay (CD3/CD28 stimulation, HTRF IL-2 detection); type: cell-based; details: 24 h; for IC50: Homo sapiens, T-cell
Method: Test compound-mediated inhibition of NFκB signalling in T cells was assessed by quantification of the IL-2 secretion by human effector memory T cells (TEM) upon treatment and stimulation. Human TEM cells were isolated from buffy coats of healthy donors obtained from the French blood bank.
Finally, 10 doses of test compound, originally prepared in DMSO by serial semi-log step dilution, were also added to cells in triplicate wells. Final DMSO concentration in wells was 0.1% in a total volume of 100 μL complete medium. Plates were incubated for 24 h at 37° C. in 5% CO2 atmosphere. After incubation, cell suspensions were centrifuged at 400×g and culture supernatants were recovered and stored at −80° C. […] IL-2 levels were determined in cell supernatants using an HTRF human IL-2 detection kit (Cisbio, cat #62HIL02PEH).

[4] = binned A to H, read-out: PKC-theta HTRF pIC50 (binned) (converted)
[5] = read-out: PKC-theta HTRF pIC50 (converted)
[6] = binned A to G, read-out: PKC-theta IL2 pIC50 (binned) (converted)
[7] = read-out: PKC-theta IL2 pIC50 (converted)

T1 sequence (Q05655 345-676): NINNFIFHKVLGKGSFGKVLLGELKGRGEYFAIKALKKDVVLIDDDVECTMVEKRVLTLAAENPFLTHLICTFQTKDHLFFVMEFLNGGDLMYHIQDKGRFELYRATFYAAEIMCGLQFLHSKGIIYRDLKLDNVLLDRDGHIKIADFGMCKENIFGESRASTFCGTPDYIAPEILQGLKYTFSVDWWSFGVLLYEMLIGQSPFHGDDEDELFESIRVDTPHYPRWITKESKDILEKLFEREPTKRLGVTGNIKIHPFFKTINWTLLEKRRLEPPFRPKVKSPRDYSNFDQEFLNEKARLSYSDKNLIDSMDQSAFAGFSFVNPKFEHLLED

SMILES | PKC-theta/PKC-delta selectivity [1] | PKC-theta/PKC-delta selectivity (binned) [1] | IC50 [2, 4] | IC50 [2, 5] | IC50 [3, 6] | IC50 [3, 7] | PKC-theta IL2 pIC50 [3] | PKC-theta IL2 pIC50 (binned) ([3]; binned A to G)
CC(c1cccc(-c2ccnc3[nH]c(=O)[nH]c23)c1)N(C)C (stereo not drawn) [Example 1] | 1 | F (a ratio of between 1 and 5) | 316 to 1000 nM | 501 nM | > 1000 nM | 10000 nM |  | 
C[C@H]1CN(c2cccc(-c3ccnc4c3C(C)(C)C(=O)N4)c2)CCN1 [Example 52] | 2 | F (a ratio of between 1 and 5) | 100 to 316 nM | 126 nM | > 1000 nM | 1580 nM |  | 
C[C@@H]1NCCN(c2cc(C(F)(F)F)cc(-c3ccnc4c3[C@](C)(O)C(=O)N4)n2)[C@@H]1C [Example 126] | 12 | D (a ratio of between 10 and 20) | 1 to 3.16 nM | 1.26 nM | 10 to 31.6 nM | 25.1 nM |  | 
C[C@H]1CNCCN1c1cc(Cl)cc(-c2ccnc3c2[C@](C)(O)C(=O)N3)n1 (single isomer, unassigned) [Example 104] | 11 | D (a ratio of between 10 and 20) | 3.16 to 10 nM | 5.01 nM | 100 to 316 nM | 126 nM |  | 
C[C@@H]1CN(c2cc(C(C)(F)F)cc(-c3ccnc4c3C(C)(C)C(=O)N4)n2)CCCN1 [Example 204] | 24 | C (a ratio of between 20 and 30) | 3.16 to 10 nM | 6.31 nM | 100 to 316 nM | 126 nM |  | 
O=C1Cc2c(-c3cccc(N4CCNCC4)c3)ccnc2N1 [Example 4] | 8 | E (a ratio of between 5 and 10) | 100 to 316 nM | 251 nM | > 1000 nM | 5010 nM |  | 
O=c1[nH]c2nccc(-c3cc(F)cc(N4CCNCC4)c3)c2[nH]1 [Example 7] | 2 | F (a ratio of between 1 and 5) | 100 to 316 nM | 100 nM | > 1000 nM | 2510 nM |  | 
C[C@@H]1CNC[C@@H](C)N1c1cc(C(F)(F)F)cc(-c2ccnc3c2C(C)(C)C(=O)N3)n1 [Example 180] | 28 | C (a ratio of between 20 and 30) | 1 to 3.16 nM | 2 nM | 316 to 1000 nM | 631 nM |  | 
CC1(C)C(=O)Nc2nccc(-c3cc(C(F)(F)F)cc(N4CCNCC4C(F)F)n3)c21 (stereo not drawn) [Example 160] | 9 | E (a ratio of between 5 and 10) | 1 to 3.16 nM | 3.16 nM | 31.6 to 100 nM | 100 nM |  | 
C[C@@]1(O)C(=O)Nc2nccc(-c3cc(C(F)(F)F)cc(N4CCNC5CC54)n3)c21 (single isomer, unassigned) [Example 96] | 10 | E (a ratio of between 5 and 10) | 3.16 to 10 nM | 5.01 nM | 100 to 316 nM | 200 nM |  | 
C[C@@H]1CN(c2cc(C(F)(F)F)cc(-c3ccnc4c3[C@](C)(O)C(=O)N4)n2)[C@H](C)CN1 (single isomer, unassigned) [Example 119] | 12 | D (a ratio of between 10 and 20) | 3.16 to 10 nM | 3.98 nM | 100 to 316 nM | 200 nM |  | 
CC[C@]1(C)C(=O)Nc2nccc(-c3cc(C(F)(F)F)cc(N4CCN[C@@H](C)C4)n3)c21 (single isomer, unassigned) [Example 153] | 13 | D (a ratio of between 10 and 20) | 1 to 3.16 nM | 3.16 nM | 10 to 31.6 nM | 31.6 nM |  | 
CCC1(C)C(=O)Nc2nccc(-c3cc(Cl)cc(N4CCN[C@@H](C)C4)n3)c21 (stereo partly drawn) [Example 147] | 10 | D (a ratio of between 10 and 20) | 1 to 3.16 nM | 2.51 nM | 31.6 to 100 nM | 31.6 nM |  | 
C[C@@H]1CNCCN1c1cc(Cl)cc(-c2ccnc3c2C(C)(C)C(=O)N3)n1 [Example 140] | 6 | E (a ratio of between 5 and 10) | 1 to 3.16 nM | 1.58 nM | 10 to 31.6 nM | 12.6 nM |  | 
C[C@H]1NCCN(c2cc(C(F)(F)F)cc(-c3ccnc4c3C(C)(C)C(=O)N4)n2)[C@H]1C [Example 168] | 14 | D (a ratio of between 10 and 20) | 0.316 to 1 nM | 0.501 nM |  |  | 8.1 | B (a measured pIC50 of between 8.0 and 8.5)
O=c1[nH]c2nccc(-c3cccc(N4CCNCC4)n3)c2[nH]1 [Example 14] | 2 | F (a ratio of between 1 and 5) | 100 to 316 nM | 100 nM | 316 to 1000 nM | 631 nM |  | 
C[C@H]1CNCCN1c1cc(F)cc(-c2ccnc3c2C(C)(O)C(=O)N3)c1 (stereo partly drawn) [Example 58] | 7 | E (a ratio of between 5 and 10) | 10 to 31.6 nM | 12.6 nM | 316 to 1000 nM | 316 nM |  | 
CC1(C)C(=O)Nc2nccc(-c3cc(C(F)(F)F)cc(NC4CCNC4)n3)c21 (stereo not drawn) [Example 100] | 30 | B (a ratio of between 30 and 50) | 31.6 to 100 nM | 63.1 nM | > 1000 nM | 5010 nM |  | 
CC[C@H]1CN(c2cc(C(F)(F)F)cc(-c3ccnc4c3[C@](C)(OC)C(=O)N4)n2)CCN1 (single isomer, unassigned) [Example 191] | 22 | C (a ratio of between 20 and 30) | 10 to 31.6 nM | 15.8 nM | 100 to 316 nM | 251 nM |  | 
CO[C@]1(C)C(=O)Nc2nccc(-c3cc(C(C)(F)F)cc(N4CCNC[C@H]4C)n3)c21 (single isomer, unassigned) [Example 193] | 16 | D (a ratio of between 10 and 20) | 3.16 to 10 nM | 10 nM | 31.6 to 100 nM | 79.4 nM |  | 
CC1(C)C(=O)Nc2nccc(-c3cccc(N4CCNCC4)n3)c21 [Example 38] | 4 | F (a ratio of between 1 and 5) | 3.16 to 10 nM | 10 nM | 100 to 316 nM | 158 nM |  | 
CC[C@H]1CN(c2cc(C(F)(F)F)cc(-c3ccnc4c3C(C)(C)C(=O)N4)n2)CCN1 [Example 142] | 17 | D (a ratio of between 10 and 20) | 1 to 3.16 nM | 2 nM | 31.6 to 100 nM | 39.8 nM |  | 
CC1(C)C(=O)Nc2ncc(C#N)c(-c3cc(F)cc(N4CCNCC4)c3)c21 [Example 64] | 2 | F (a ratio of between 1 and 5) | 316 to 1000 nM | 501 nM | > 1000 nM | 5010 nM |  | 
